Test results: patent US20030176314A1, “Compounds for the treatment of pain” (priority 2001, published 2003)
pEC50, pKi: −log10 of the molar value. Where two headings read alike, the source gives them in different places.

What was measured:
rat NPFF1 receptor [1] = molecular target: T1, rat NPFF1 receptor (Rattus norvegicus, UniProt Q9EP86); experiment: Competition binding at cloned rat NPFF1 receptor ([125I]1DMeNPFF displacement)
T1 construct: expressed in transfected cells; host or cells: not given
T1 sequence (Q9EP86 whole entry): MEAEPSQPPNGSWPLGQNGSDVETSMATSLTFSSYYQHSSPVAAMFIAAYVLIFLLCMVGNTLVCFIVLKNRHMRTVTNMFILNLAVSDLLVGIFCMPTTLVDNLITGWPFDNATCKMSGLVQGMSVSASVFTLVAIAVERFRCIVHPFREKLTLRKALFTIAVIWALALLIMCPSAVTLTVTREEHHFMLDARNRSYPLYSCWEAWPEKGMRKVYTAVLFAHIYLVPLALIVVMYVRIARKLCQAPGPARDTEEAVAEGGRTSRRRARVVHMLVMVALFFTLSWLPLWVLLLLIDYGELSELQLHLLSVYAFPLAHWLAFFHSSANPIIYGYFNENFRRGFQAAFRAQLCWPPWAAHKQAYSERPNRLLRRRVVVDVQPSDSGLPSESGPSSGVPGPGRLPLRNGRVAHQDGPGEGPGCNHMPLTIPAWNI
Experimental: Transfected cells from culture flasks are scraped into 5 ml of 20 mM Tris-HCl, 5 mM EDTA, pH 7.5, and lysed by sonication. The cell lysates are centrifuged at 1000 rpm for 5 min. at 4° C., and the supernatant is centrifuged at 30,000×g for 20 min. at 4° C. […] Optimal membrane suspension dilutions, defined as the protein concentration required to bind less than 10% of the added radioligand, are […], unlabeled compounds, and binding buffer to a final volume of 250 μl. […]
(§1) Competition assay: 50 pM radioligand, 10-12 points. Binding reaction mixtures are incubated for 2 hr at 25° C., and the reaction stopped by filtration through a double layer of GF filters treated with 0.1% polyethyleneimine, using a cell harvester. Wash buffer: 50 mM Tris-HCl, 0.1% BSA. Radioactivity may be measured by scintillation counting and data are analyzed by a computerized non-linear regression program. Non-specific binding is defined as the amount of radioactivity remaining after incubation of membrane protein in the presence of 1 μM final concentration […]. Protein concentration may be measured by the Bradford method using Bio-Rad Reagent, with bovine serum albumin as a standard.

rat NPFF2 receptor [2] = molecular target: T2, rat NPFF2 receptor (Rattus norvegicus, UniProt Q9EQD2); experiment: Competition binding at cloned rat NPFF2 receptor ([125I]1DMeNPFF displacement)
T2 construct: The full-length NPFF2 was amplified from rat spinal cord cDNA; expressed in transfected cells; host or cells: not given
T2 sequence (Q9EQD2 whole entry): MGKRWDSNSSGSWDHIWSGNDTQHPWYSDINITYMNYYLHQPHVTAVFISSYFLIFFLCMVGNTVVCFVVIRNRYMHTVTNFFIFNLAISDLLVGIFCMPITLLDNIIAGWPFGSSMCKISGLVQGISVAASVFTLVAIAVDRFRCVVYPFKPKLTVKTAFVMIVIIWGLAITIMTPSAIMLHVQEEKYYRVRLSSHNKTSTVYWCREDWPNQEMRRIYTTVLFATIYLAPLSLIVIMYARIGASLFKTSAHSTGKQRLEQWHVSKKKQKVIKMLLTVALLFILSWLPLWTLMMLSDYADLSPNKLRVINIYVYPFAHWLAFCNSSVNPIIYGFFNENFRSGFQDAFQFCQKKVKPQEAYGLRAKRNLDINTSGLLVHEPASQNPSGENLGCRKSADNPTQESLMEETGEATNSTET
Experimental: Transfected cells from culture flasks are scraped into 5 ml of 20 mM Tris-HCl, 5 mM EDTA, pH 7.5, and lysed by sonication. The cell lysates are centrifuged at 1000 rpm for 5 min. at 4° C., and the supernatant is centrifuged at 30,000×g for 20 min. at 4° C. […] Optimal membrane suspension dilutions, defined as the protein concentration required to bind less than 10% of the added radioligand, […], unlabeled compounds, and binding buffer to a final volume of 250 μl. In equilibrium saturation binding assays membrane preparations are incubated in the presence of increasing concentrations of [^3H]-labeled compound.
as §1

rat NPFF1 receptor [3] = molecular target: T1, rat NPFF1 receptor; experiment: Functional assay (agonist potency, intrinsic activity) at cloned rat NPFF1 receptor; format: cell-based; conditions: for Functional Activity rNPFF1 I.A. %: percent of maximum response elicited by neuropeptide FF; for classification as agonist or antagonist at the NPFF1 receptor: agonist: IA>15%, antagonist: Ki≦1.2 mM and IA≦15% at the rat cloned NPFF receptors; for rNPFF1 IA: Table 7, intrinsic activity
rat NPFF2 receptor [4] = molecular target: T2, rat NPFF2 receptor; experiment: Functional assay (agonist potency, intrinsic activity) at cloned rat NPFF2 receptor; format: cell-based; conditions: for Functional Activity rNPFF2 I.A. %: percent of maximum response elicited by neuropeptide FF; for classification as agonist or antagonist at the NPFF2 receptor: agonist: IA>15%, antagonist: Ki≦1.2 mM and IA≦15% at the rat cloned NPFF receptors; for rNPFF2 IA: Table 7, intrinsic activity
[5] = molecular target: T3, norepinephrine (NE) transporter (Rattus norvegicus, UniProt Q63380); experiment: Binding at native norepinephrine transporter (NE uptake); conditions: Table 8
T3 construct: evaluated at native, tissue-derived transporters; from tissue
T3 sequence (Q63380 1-617): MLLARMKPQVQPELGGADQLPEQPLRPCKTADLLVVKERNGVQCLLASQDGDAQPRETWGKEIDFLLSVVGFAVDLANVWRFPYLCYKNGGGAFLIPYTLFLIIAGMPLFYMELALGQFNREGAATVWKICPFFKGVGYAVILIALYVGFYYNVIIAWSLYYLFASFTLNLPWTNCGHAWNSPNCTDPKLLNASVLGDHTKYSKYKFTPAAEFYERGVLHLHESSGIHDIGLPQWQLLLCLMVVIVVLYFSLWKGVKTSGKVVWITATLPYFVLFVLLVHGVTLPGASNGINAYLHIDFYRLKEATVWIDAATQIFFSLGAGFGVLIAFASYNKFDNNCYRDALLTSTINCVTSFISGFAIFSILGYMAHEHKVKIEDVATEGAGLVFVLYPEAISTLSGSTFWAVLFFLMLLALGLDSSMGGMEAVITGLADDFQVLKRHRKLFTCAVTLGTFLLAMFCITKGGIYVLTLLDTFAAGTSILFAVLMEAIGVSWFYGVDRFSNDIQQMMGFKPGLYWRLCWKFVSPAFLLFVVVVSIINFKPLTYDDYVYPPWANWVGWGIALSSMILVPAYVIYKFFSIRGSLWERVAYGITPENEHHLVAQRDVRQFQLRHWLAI
Experimental: (§2) Transporters: The binding properties of compounds were evaluated at native, tissue-derived transporters, namely serotonin (5HT) transporter and norepinephrine (NE) transporter, according to protocols described in Owens (1997), the disclosure of which is hereby incorporated by reference in its entirety into this application.
(§3) The binding affinity (Ki) of these compounds were tested according to the protocols described herein at the following receptors; human α1A, α1B, α1D, α2A, α2B, and α2C adrenergic receptors; human Y1, Y2, Y4, and Y5 receptors; and N-Methyl-D-aspartic acid (NMDA) receptor channels. The binding interactions of these compounds were additionally tested at the norepinephrine (NE) transporter (NE uptake) and serotonin (5-hydroxytryptamine (5HT)) transporter (5HT uptake) according to protocols described herein

[6] = molecular target: T4, serotonin (5HT) transporter (Rattus norvegicus, UniProt P31652); experiment: Binding at native serotonin transporter (5HT uptake); conditions: Table 8
T4 construct: evaluated at native, tissue-derived transporters; from tissue
T4 sequence (P31652 whole entry): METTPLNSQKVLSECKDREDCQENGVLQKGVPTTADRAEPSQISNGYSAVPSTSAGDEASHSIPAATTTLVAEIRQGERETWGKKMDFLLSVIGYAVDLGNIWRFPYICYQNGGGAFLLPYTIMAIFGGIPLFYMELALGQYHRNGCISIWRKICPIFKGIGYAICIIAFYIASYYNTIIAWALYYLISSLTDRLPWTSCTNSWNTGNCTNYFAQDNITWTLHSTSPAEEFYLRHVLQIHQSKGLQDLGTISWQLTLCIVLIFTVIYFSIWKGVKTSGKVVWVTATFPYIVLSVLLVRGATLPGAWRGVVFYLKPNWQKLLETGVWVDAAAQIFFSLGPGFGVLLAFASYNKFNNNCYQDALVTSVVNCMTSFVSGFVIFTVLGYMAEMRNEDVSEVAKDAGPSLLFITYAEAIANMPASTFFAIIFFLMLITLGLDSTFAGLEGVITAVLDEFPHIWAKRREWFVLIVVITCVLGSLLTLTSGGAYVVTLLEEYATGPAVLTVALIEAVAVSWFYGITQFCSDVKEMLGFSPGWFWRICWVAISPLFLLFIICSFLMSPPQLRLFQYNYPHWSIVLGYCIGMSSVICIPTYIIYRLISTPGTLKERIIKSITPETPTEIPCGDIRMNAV
Experimental: as §2, §3

[7] = Table 5, D-Arg- or D-Phe-containing compounds, read-out: Ki Values rNPFF1
[8] = Table 5, D-Arg- or D-Phe-containing compounds, read-out: Ki Values rNPFF2
[9] = Table 5, read-out: Functional Activity rNPFF1 EC50
[10] = Table 5, read-out: Functional Activity rNPFF2 EC50
[11] = Table 4, read-out: Ki Values rNPFF1
[12] = Table 4, read-out: Ki Values rNPFF2
[13] = Table 4, read-out: Functional Activity rNPFF1 EC50
[14] = Table 4, read-out: Functional Activity rNPFF2 EC50
[15] = Table 3, recombinant rat NPFF1, read-out: rNPFF1 Ki
[16] = Table 3, recombinant rat NPFF2, read-out: rNPFF2 Ki
[17] = Table 7, agonist potency, read-out: rNPFF1 EC50
[18] = Table 7, agonist potency, read-out: rNPFF2 EC50

## N=C(N)NCCC[C@@H](NS(=O)(=O)c1cccc2ccccc12)C(=O)N[C@@H](Cc1ccccc1)C(N)=O [Compound 3001B]
Rat NPFF1 receptor [1]; [7]
  pKi: 7.34
Rat NPFF2 receptor [2]; [8]
  pKi: 5.54
Rat NPFF1 receptor [3]; Table 5
  Functional Activity rNPFF1 I.A. %: 1%
Rat NPFF1 receptor [3]; [9]
  pEC50: < 5.00
Rat NPFF1 receptor [3]
  classification as agonist or antagonist at the NPFF1 receptor: antagonist
Rat NPFF2 receptor [4]; Table 5
  Functional Activity rNPFF2 I.A. %: 79%
Rat NPFF2 receptor [4]; [10]
  pEC50: 6.42
Rat NPFF2 receptor [4]
  classification as agonist or antagonist at the NPFF2 receptor: agonist

## COc1ccc(Br)cc1S(=O)(=O)N[C@@H](CCCNC(=N)N)C(=O)N[C@@H](Cc1ccccc1)C(N)=O [Compound 1025B]
Rat NPFF1 receptor [1]; [11]
  pKi: 6.48
Rat NPFF2 receptor [2]; [12]
  pKi: 5.38
Rat NPFF1 receptor [3]; Table 4
  Functional Activity rNPFF1 I.A. %: 78%
Rat NPFF1 receptor [3]; [13]
  pEC50: 6.22
Rat NPFF2 receptor [4]; Table 4
  Functional Activity rNPFF2 I.A. %: 33%
Rat NPFF2 receptor [4]; [14]
  pEC50: < 5.50

## N1-[(1S)-2-Amino-1-benzyl-2-oxoethyl]-(2S)-{[amino(imino)methyl]amino}-2-[pentafluorophenyl)sulfonyl]amino}pentanamide [Compound 1024B]
Rat NPFF1 receptor [1]; [11]
  pKi: 6.31
Rat NPFF2 receptor [2]; [12]
  pKi: 5.27
Rat NPFF1 receptor [3]; Table 4
  Functional Activity rNPFF1 I.A. %: 69%
Rat NPFF1 receptor [3]; [13]
  pEC50: 6.14
Rat NPFF2 receptor [4]; Table 4
  Functional Activity rNPFF2 I.A. %: 43%
Rat NPFF2 receptor [4]; [14]
  pEC50: < 5.50

## Cc1nc(NC(=N)N)nc2ccc(OCCCCCOc3ccccc3)cc12 [Compound 1005A, N-4-methyl-6-[(5-phenoxypentyl)oxy]-2-quinazolinylguanidine]
Rat NPFF1 receptor [1]; [15]
  pKi: 6.50
Rat NPFF2 receptor [2]; [16]
  pKi: 5.67
Rat NPFF1 receptor [3]; [17]
  pEC50: < 5.00
Rat NPFF1 receptor [3]
  rNPFF1 IA: Inactive
Rat NPFF2 receptor [4]; [18]
  pEC50: 5.50
Rat NPFF2 receptor [4]
  rNPFF2 IA: 21% NPFF

## N1-[(1R)-2-Amino-1-benzyl-2-oxoethyl]-(2S)-{[amino(imino)methyl]amino}-2-[2, 6-difluorophenyl)sulfonyl]amino]pentanamide [Compound 1032B]
Rat NPFF1 receptor [1]; [7]
  pKi: 5.89
Rat NPFF2 receptor [2]; [8]
  pKi: < 5.00
Rat NPFF1 receptor [3]; Table 5
  Functional Activity rNPFF1 I.A. %: 47%
Rat NPFF1 receptor [3]; [9]
  pEC50: 6.19
Rat NPFF2 receptor [4]; Table 5
  Functional Activity rNPFF2 I.A. %: 61%
Rat NPFF2 receptor [4]; [10]
  pEC50: 5.56

## N=C(N)NCCC[C@H](NS(=O)(=O)c1ccc2ccccc2c1)C(=O)N[C@H](Cc1ccccc1)C(N)=O [Compound 1029B]
Rat NPFF1 receptor [1]; [7]
  pKi: 6.40
Rat NPFF2 receptor [2]; [8]
  pKi: 5.57
Rat NPFF1 receptor [3]; Table 5
  Functional Activity rNPFF1 I.A. %: 30%
Rat NPFF1 receptor [3]; [9]
  pEC50: 6.32
Rat NPFF2 receptor [4]; Table 5
  Functional Activity rNPFF2 I.A. %: 86%
Rat NPFF2 receptor [4]; [10]
  pEC50: < 5.50

## CCc1nc(NC(=N)N)nc2ccc(C)cc12 [Compound 1027A]
Rat NPFF1 receptor [1]; [15]
  pKi: 6.22
Rat NPFF2 receptor [2]; [16]
  pKi: 5.50
Rat NPFF1 receptor [3]; [17]
  pEC50: < 5.00
Rat NPFF1 receptor [3]
  rNPFF1 IA: Inactive
Rat NPFF2 receptor [4]; [18]
  pEC50: < 5.00
Rat NPFF2 receptor [4]
  rNPFF2 IA: 31% NPFF

## COc1ccc(C)cc1S(=O)(=O)N[C@@H](CCCNC(=N)N)C(=O)N[C@@H](Cc1ccccc1)C(N)=O [Compound 2003B]
Rat NPFF2 receptor [2]; [12]
  pKi: < 5.00
Rat NPFF1 receptor [3]; Table 4
  Functional Activity rNPFF1 I.A. %: 102%
Rat NPFF1 receptor [3]
  classification as agonist or antagonist at the NPFF1 receptor: agonists
Rat NPFF2 receptor [4]; Table 4
  Functional Activity rNPFF2 I.A. %: 52%
Rat NPFF2 receptor [4]; [14]
  pEC50: < 5.50
Rat NPFF2 receptor [4]
  classification as agonist or antagonist at the NPFF2 receptor: agonists

## N1-[(1S)-2-Amino-1-benzyl-2-oxoethyl]-(2R)-{[amino(imino)methyl]amino}-2-2-bromophenyl) sulfonyl]amino}pentanamide [Compound 1030B]
Rat NPFF1 receptor [1]; [7]
  pKi: 6.60
Rat NPFF2 receptor [2]; [8]
  pKi: 5.21
Rat NPFF1 receptor [3]; Table 5
  Functional Activity rNPFF1 I.A. %: 35%
Rat NPFF1 receptor [3]; [9]
  pEC50: 6.18
Rat NPFF2 receptor [4]; Table 5
  Functional Activity rNPFF2 I.A. %: 71%
Rat NPFF2 receptor [4]; [10]
  pEC50: 5.78

## N1-[(1R)-2-Amino-1-benzyl-2-oxoethyl]-(2S)-{[amino(imino)methyl]amino}-2-[2-bromophenyl) sulfonyl]amino}pentanamide [Compound 1031B]
Rat NPFF1 receptor [1]; [7]
  pKi: 5.59
Rat NPFF2 receptor [2]; [8]
  pKi: 5.22
Rat NPFF1 receptor [3]; Table 5
  Functional Activity rNPFF1 I.A. %: 32%
Rat NPFF1 receptor [3]; [9]
  pEC50: 6.07
Rat NPFF2 receptor [4]; Table 5
  Functional Activity rNPFF2 I.A. %: 24%
Rat NPFF2 receptor [4]; [10]
  pEC50: 5.80

## Cc1ccc2c(C)nc(NC(=N)N)nc2c1 [Compound 3001A, N-(4,7-dimethyl-2-quinazolinyl)guanidine]
[5]
  pKi: 4.67
Rat NPFF1 receptor [3]
  classification as agonist or antagonist at the NPFF1 receptor: antagonists
[6]
  pKi: 4.65
Rat NPFF2 receptor [4]
  classification as agonist or antagonist at the NPFF2 receptor: antagonists

## Cc1nc(NC(=N)N)nc2ccc(Cl)cc12 [Compound 1013A, N-(6-chloro-4-methyl-2-quinazolinyl)guanidine]
[5]
  pKi: 4.39
[6]
  pKi: 5.69
Rat NPFF2 receptor [4]
  rNPFF2 IA: 52% NPFF
